Test system: Myo5 SH3 domain
Experiment: SPOT analysis of cellulose-bound peptides (WISE), Myo5 SH3 domain (Dataset S4)
Type: binding, Saccharomyces cerevisiae
Details: for The normalized value in BLU units: Myo5 SH3 domain
[1] = SPOT analysis of membrane-synthesized peptides probed with Myo5 SH3 domain, normalized value
[2] = SPOT analysis of cellulose-bound peptides probed with Myo5 SH3 domain, normalized value
[3] = SPOT analysis of cellulose-bound 14-mer yeast proteome peptides, normalized value, mean where the peptide was synthesized more than once
[4] = SPOT analysis of membrane-bound peptides, normalized value (see methods)

RSRSKKDPGIPSNF was tested, and the “The normalized value in BLU units (SPOT analysis, Myo5 SH3)” value [1] was 800.0 BLU.

With FESTLPIPTYPREG the “The normalized value in BLU units (SPOT analysis, Myo5 SH3)” value [2] was 122.0 BLU.

For TGKPRKTPRPPFPF, the “The normalized value in BLU units” value [3] was 1192.8 BLU.

For TIEARVHPEPPNKP, the “The normalized value in BLU units” value [3] was 374.9 BLU.

With IGKSKSAPPIPEDT the “The normalized value in BLU units” value [3] was 243.5 BLU.

With GARFLPAPHRPEKY the “The normalized value in BLU units” value [3] was 152.9 BLU.

With DLKKKYAPDPPITH the “The normalized value in BLU units” value [4] was 185.5 BLU.

In the case of TAAELQAPPPPPSS, the “The normalized value in BLU units (SPOT analysis, Myo5 SH3)” value [2] is reported as 315.2 BLU.

In the case of RKSDKNAPSVPQVD, the “The normalized value in BLU units” value [4] is reported as 394.6 BLU.

In the case of KPKVLFHPHWPLYI, the “The normalized value in BLU units” value [3] is reported as 195.5 BLU.

In the case of LMSLKRFPQLPSNT, the “The normalized value in BLU units (SPOT analysis, Myo5 SH3)” value [1] is reported as 347.7 BLU.

With PVPVRMQPQPPQPM the “The normalized value in BLU units” value [4] was 187.8 BLU.

In the case of FEDHHITPCKPGGQ, the “The normalized value in BLU units” value [3] is reported as 67.9 BLU.

For EFIVKTIPVPPRDF, the “The normalized value in BLU units (SPOT analysis, Myo5 SH3)” value [1] was 115.3 BLU.

With ILPPRIVPAIPKKA the “The normalized value in BLU units (SPOT analysis, Myo5 SH3)” value [1] was 3670.9 BLU.

In the case of LLAKLPLPRDPRVA, the “The normalized value in BLU units” value [3] is reported as 343.8 BLU.

In the case of KSIPRTKPNVPPLQ, the “The normalized value in BLU units” value [4] is reported as 343.4 BLU.

TTKHKAPPPPPPTA was tested, and the “The normalized value in BLU units (SPOT analysis, Myo5 SH3)” value [1] was 1684.9 BLU.

For FANIKREPVHPEIR, the “The normalized value in BLU units” value [3] was 188.2 BLU.

For GYDEKGNPIPPNNW, the “The normalized value in BLU units” value [3] was 96.0 BLU.

In the case of DKKKKKYPRKPKKN, the “The normalized value in BLU units” value [4] is reported as 532.3 BLU.

With KNLKKYDPEDPNRR the “The normalized value in BLU units” value [4] was 207.1 BLU.

RPPSHSAPYIPRSS was tested, and the “The normalized value in BLU units” value [3] was 47448.0 BLU.

With LKHTKNKPKNPDTA the “The normalized value in BLU units (SPOT analysis, Myo5 SH3)” value [1] was 406.0 BLU.

With AELMLRIPYLPGQN the “The normalized value in BLU units (SPOT analysis, Myo5 SH3)” value [2] was 236.4 BLU.

HEREKALPPIPFTT was tested, and the “The normalized value in BLU units (SPOT analysis, Myo5 SH3)” value [1] was 214.6 BLU.

In the case of VFGTYLGPDAPLSK, the “The normalized value in BLU units” value [3] is reported as 130.5 BLU.

FLQDRVIPIFPHYP was tested, and the “The normalized value in BLU units (SPOT analysis, Myo5 SH3)” value [1] was 260.9 BLU.

GFLSKKVPNTPVVV was tested, and the “The normalized value in BLU units” value [4] was 71.3 BLU.

With WFILKLFPHEPIEG the “The normalized value in BLU units” value [4] was 1272.7 BLU.

With FAYSLGLPGAPKIK the “The normalized value in BLU units (SPOT analysis, Myo5 SH3)” value [2] was 75.8 BLU.

In the case of KHEPKKSPTTPALA, the “The normalized value in BLU units (SPOT analysis, Myo5 SH3)” value [1] is reported as 726.2 BLU.

For KEQNWKHPLLPLLK, the “The normalized value in BLU units (SPOT analysis, Myo5 SH3)” value [2] was 321.0 BLU.

For IFFKLIHPFLPILH, the “The normalized value in BLU units” value [3] was 503.3 BLU.

For ELFTFDMPTDPSSF, the “The normalized value in BLU units” value [3] was 44.9 BLU.

With APPALSAPSIPPVP the “The normalized value in BLU units” value [3] was 10786.3 BLU.

With IESFRERPLEPPRK the “The normalized value in BLU units (SPOT analysis, Myo5 SH3)” value [1] was 98.7 BLU.

RERPLEPPRKPMAS was tested, and the “The normalized value in BLU units” value [3] was 967.3 BLU.

For HEHNYAIPYTPATF, the “The normalized value in BLU units” value [3] was 129.1 BLU.

In the case of FEYSKYRPLTPSSE, the “The normalized value in BLU units (SPOT analysis, Myo5 SH3)” value [1] is reported as 143.0 BLU.

In the case of TSGYKYFPQFPQLK, the “The normalized value in BLU units (SPOT analysis, Myo5 SH3)” value [1] is reported as 234.6 BLU.

With IPAPKLVPPPPRTR the “The normalized value in BLU units” value [4] was 82308.4 BLU.

With HEKLYHNPSLPAQS the “The normalized value in BLU units (SPOT analysis, Myo5 SH3)” value [2] was 78.1 BLU.

NSTVRRKPHSPNKK was tested, and the “The normalized value in BLU units (SPOT analysis, Myo5 SH3)” value [1] was 955.5 BLU.

KELLLIPPGFPTKN was tested, and the “The normalized value in BLU units” value [3] was 122.9 BLU.

FLRTMAQPTDPKDQ was tested, and the “The normalized value in BLU units” value [3] was 256.6 BLU.

For DLDWRKIPFLPKEI, the “The normalized value in BLU units” value [3] was 250.1 BLU.

With PEGVFCIPAPPPNV the “The normalized value in BLU units” value [3] was 82.5 BLU.

With TPINFVFPNLPLEH the “The normalized value in BLU units” value [3] was 81.8 BLU.

For VLKIKPLPYKPRGR, the “The normalized value in BLU units (SPOT analysis, Myo5 SH3)” value [1] was 646.7 BLU.

PPRFKNFPTLPSKI was tested, and the “The normalized value in BLU units” value [4] was 634.0 BLU.

In the case of TSWARDNPSKPDIA, the “The normalized value in BLU units” value [4] is reported as 81.6 BLU.

In the case of KWTIMPHPNRPNAA, the “The normalized value in BLU units” value [3] is reported as 428.7 BLU.

In the case of LPEPRFYPLSPKNN, the “The normalized value in BLU units” value [4] is reported as 289.3 BLU.

In the case of SNFKKRDPGLPDFQ, the “The normalized value in BLU units (SPOT analysis, Myo5 SH3)” value [1] is reported as 160.6 BLU.

GTGRRRSPSTPIMP was tested, and the “The normalized value in BLU units” value [4] was 921.0 BLU.

For KVSSKYDPDNPNKD, the “The normalized value in BLU units” value [4] was 434.5 BLU.

For RPKRRAPPPVPKKP, the “The normalized value in BLU units (SPOT analysis, Myo5 SH3)” value [1] was 67429.7 BLU.

For WLLPYSLPMHPGRW, the “The normalized value in BLU units (SPOT analysis, Myo5 SH3)” value [2] was 706.0 BLU.

With KQSKRARPSSPYTV the “The normalized value in BLU units (SPOT analysis, Myo5 SH3)” value [1] was 271.3 BLU.

For IQQNKQGPKIPFYL, the “The normalized value in BLU units (SPOT analysis, Myo5 SH3)” value [1] was 86.9 BLU.
